Measurements published in patent US20210393623A1 (Jacobio Pharmaceuticals Co., Ltd., priority 2018, published 2021).

molecular target: T1, SHP2 (Homo sapiens, UniProt Q06124); assay: Phosphatase Assay (Single Dose Inhibition); format: biochemical; settings: compound at 0.02 μM (20nM); DiFMUP substrate 12 μM; SHP2 0.5 nM activated with dPEG8 peptide; DMSO control set to 100%; triplicate
T1 sequence (Q06124 1-593): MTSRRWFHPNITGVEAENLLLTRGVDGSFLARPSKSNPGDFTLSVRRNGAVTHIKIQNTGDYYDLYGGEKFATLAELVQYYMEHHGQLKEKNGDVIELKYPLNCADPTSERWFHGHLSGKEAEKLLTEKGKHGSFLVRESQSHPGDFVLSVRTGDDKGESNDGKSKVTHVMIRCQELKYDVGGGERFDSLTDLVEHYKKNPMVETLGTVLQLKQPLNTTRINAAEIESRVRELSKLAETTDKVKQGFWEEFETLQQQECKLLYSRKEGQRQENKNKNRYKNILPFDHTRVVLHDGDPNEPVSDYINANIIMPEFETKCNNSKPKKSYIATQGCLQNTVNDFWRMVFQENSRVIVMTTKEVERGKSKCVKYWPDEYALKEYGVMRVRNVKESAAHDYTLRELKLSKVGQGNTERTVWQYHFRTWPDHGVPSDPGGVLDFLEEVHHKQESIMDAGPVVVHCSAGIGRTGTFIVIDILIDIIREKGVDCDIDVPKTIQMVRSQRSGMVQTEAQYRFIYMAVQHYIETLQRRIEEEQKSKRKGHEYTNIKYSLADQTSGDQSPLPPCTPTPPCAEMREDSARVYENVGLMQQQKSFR
Description: Phosphatase Assay (Single Dose Inhibition) Assay Protocol: For single dose inhibition assays using 6,8-difluoro-4-methylumbelliferyl phosphate (DiFMUP) as a substrate, SHP2 samples (diluted to 0.5 nM in reaction buffer) were incubated with dPEG8 peptide for 30 min in reaction buffer[60 mM 3,3-dimethyl glutarate (pH7.2), 75 mM NaCl, 75 mM KCl, and 1 mM EDTA, 0.05% Tween 20, 2mM dithiothreitol (DTT) ] to active the PTP. DMSO [0.5% (v/v)] or compounds (20nM) were added to the mixture and incubated for 30 min at room temperature. Reactions were initiated by the addition of DiFMUP (12 μM; total reaction volume of 100 μL), and the fluorescence (excitation at 340 nm, emission at 450 nm) of the resulting solutions was measured on a 2104-0020 EnVision Xcite Multilabel Reader (PerkinElmer) after 30min. The experiment is carried out in triplicate. The value for the control sample (DMSO) was set to 100%, and the values for the compound-treated samples were expressed as activity relative to the control sample.

Row | SMILES | inhibition at 0.02 µM [%]
1 | Cc1nc(N2CCC3(CC2)Cc2ncccc2[C@H]3N)cnc1-c1cccc(Cl)c1Cl [Example 2, (S)-1′-(5-(2,3-dichlorophenyl)-6-methylpyrazin-2-yl)-5,7-dihydrospiro[cyclopenta[b]pyridine-6,4′-piperidin]-5-amine] | 80
2 | Cc1nc(N2CCC3(CC2)Cc2ccccc2[C@H]3N)c(C(=O)O)nc1-c1cccc(Cl)c1Cl [Example 3, (S)-3-(1-amino-1,3-dihydrospiro[indene-2,4′-piperidin]-1′-yl)-6-(2,3-dichlorophenyl)-5-methylpyrazine-2-carboxylic acid] | 81
3 | Cc1nc(N2CCC3(CC2)Cc2ccccc2[C@H]3N)c(C(N)=O)nc1-c1cccc(Cl)c1Cl [Example 4, (S)-3-(1-amino-1,3-dihydrospiro[indene-2,4′-piperidin]-1′-yl)-6-(2,3-dichlorophenyl)-5-methylpyrazine-2-carboxamide] | 89
4 | CCOC(=O)c1nc(Sc2ccnc(N)c2Cl)c(C)nc1N1CCC2(CC1)Cc1ccccc1[C@H]2N [Example 5, ethyl (S)-3-(1-amino-1,3-dihydrospiro[indene-2,4′-piperidin]-1′-yl)-6-((2-amino-3-chloropyridin-4-yl)thio)-5-methylpyrazine-2-carboxylate] | 84
5 | Cc1nc(N2CCC3(CC2)Cc2ccccc2[C@H]3N)cnc1Sc1ccnc(N)c1Cl [Example 6, (S)-1′-(5-((2-amino-3-chloropyridin-4-yl)thio)-6-methylpyrazin-2-yl)-1,3-dihydrospiro[indene-2,4′-piperidin]-1-amine] | 89
6 | Nc1nc(N2CCC3(CC2)Cc2ncccc2[C@H]3N)ncc1Sc1ccnc(N)c1Cl [Example 8, (S)-1′-(4-amino-5-((2-amino-3-chloropyridin-4-yl)thio)pyrimidin-2-yl)-5,7-dihydrospiro[cyclopenta[b]pyridine-6,4′-piperidin]-5-amine] | 68
7 | N#Cc1cnc2c(c1)[C@@H](N)C1(CCN(c3ccc(Sc4ccnc(N)c4Cl)cn3)CC1)C2 [Example 15, (S)-5-amino-1′-(5-((2-amino-3-chloropyridin-4-yl)thio)pyridin-2-yl)-5,7-dihydrospiro[cyclopenta[b]pyridine-6,4′-piperidine]-3-carbonitrile] | 64
8 | COc1nccc(Sc2cnc(N3CCC4(CC3)Cc3ccc(SC)cc3[C@H]4N)cn2)c1Cl [Example 19, (S)-1′-(5-((3-chloro-2-methoxypyridin-4-yl)thio)pyrazin-2-yl)-6-(methylthio)-1,3-dihydrospiro[indene-2,4′-piperidin]-1-amine] | 61
9 | CC(C)Nc1nccc(Sc2cnc(N3CCC4(CC3)Cc3ccc(S(C)(=O)=O)cc3[C@H]4N)cn2)c1Cl [Example 21, (S)-1′-(5-((3-chloro-2-(isopropylamino)pyridin-4-yl)thio)pyrazin-2-yl)-6-(methylsulfonyl)-1,3-dihydrospiro[indene-2,4′-piperidin]-1-amine] | 68
10 | Cc1nc(N2CCC3(CC2)Cc2ccccc2[C@H]3N)c(CO)nc1-c1cccc(Cl)c1Cl [Example 23, (S)-(3-(1-amino-1,3-dihydrospiro[indene-2,4′-piperidin]-1′-yl)-6-(2,3-dichlorophenyl)-5-methylpyrazin-2-yl)methanol] | 85
11 | Cc1nc(N2CCC3(CC2)Cc2ccccc2[C@H]3N)c(CO)nc1Sc1ccnc(N)c1Cl [Example 24, (S)-(3-(1-amino-1,3-dihydrospiro[indene-2,4′-piperidin]-1′-yl)-6-((2-amino-3-chloropyridin-4-yl)thio)-5-methylpyrazin-2-yl)methanol] | 87
12 | Cc1nc(N2CCC3(CC2)Cc2ncccc2[C@H]3N)c(Br)nc1-c1cccc(Cl)c1Cl [Example 25, (S)-1′-(3-bromo-5-(2,3-dichlorophenyl)-6-methylpyrazin-2-yl)-5,7-dihydrospiro[cyclopenta[b]pyridine-6,4′-piperidin]-5-amine] | 78
